Assay results: patent publication US8217063B2, “Lactam-substituted dicarboxylic acids and use thereof” (Bayer Intellectual Property GmbH, priority 2007, dated 2012)

Tests used:
Heme-containing sGC = molecular target: T1, Heme-containing sGC (Rattus norvegicus, UniProt P20595); experiment: Stimulation of recombinant soluble guanylate cyclase (sGC) in vitro, heme-containing enzyme; assay type: biochemical
T1 construct: made in house; host or cells: baculovirus/Sf9
T1 sequence (P20595 1-619): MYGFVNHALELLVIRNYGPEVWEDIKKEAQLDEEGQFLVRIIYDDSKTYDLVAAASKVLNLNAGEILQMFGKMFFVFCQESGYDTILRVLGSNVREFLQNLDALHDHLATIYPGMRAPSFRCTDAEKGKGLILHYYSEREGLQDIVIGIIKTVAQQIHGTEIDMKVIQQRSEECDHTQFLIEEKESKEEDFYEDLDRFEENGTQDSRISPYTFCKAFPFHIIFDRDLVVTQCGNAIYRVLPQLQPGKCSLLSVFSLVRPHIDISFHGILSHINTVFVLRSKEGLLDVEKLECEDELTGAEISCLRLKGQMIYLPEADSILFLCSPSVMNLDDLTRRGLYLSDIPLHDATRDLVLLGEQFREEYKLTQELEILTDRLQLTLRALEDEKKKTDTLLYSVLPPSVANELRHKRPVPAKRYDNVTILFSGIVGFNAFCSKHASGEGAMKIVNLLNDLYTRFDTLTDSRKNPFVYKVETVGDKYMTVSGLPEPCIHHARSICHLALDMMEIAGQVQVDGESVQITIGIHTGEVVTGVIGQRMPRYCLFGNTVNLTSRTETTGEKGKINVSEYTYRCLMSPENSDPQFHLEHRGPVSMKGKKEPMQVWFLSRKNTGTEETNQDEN
T1 sequence (P19686 1-690 partner): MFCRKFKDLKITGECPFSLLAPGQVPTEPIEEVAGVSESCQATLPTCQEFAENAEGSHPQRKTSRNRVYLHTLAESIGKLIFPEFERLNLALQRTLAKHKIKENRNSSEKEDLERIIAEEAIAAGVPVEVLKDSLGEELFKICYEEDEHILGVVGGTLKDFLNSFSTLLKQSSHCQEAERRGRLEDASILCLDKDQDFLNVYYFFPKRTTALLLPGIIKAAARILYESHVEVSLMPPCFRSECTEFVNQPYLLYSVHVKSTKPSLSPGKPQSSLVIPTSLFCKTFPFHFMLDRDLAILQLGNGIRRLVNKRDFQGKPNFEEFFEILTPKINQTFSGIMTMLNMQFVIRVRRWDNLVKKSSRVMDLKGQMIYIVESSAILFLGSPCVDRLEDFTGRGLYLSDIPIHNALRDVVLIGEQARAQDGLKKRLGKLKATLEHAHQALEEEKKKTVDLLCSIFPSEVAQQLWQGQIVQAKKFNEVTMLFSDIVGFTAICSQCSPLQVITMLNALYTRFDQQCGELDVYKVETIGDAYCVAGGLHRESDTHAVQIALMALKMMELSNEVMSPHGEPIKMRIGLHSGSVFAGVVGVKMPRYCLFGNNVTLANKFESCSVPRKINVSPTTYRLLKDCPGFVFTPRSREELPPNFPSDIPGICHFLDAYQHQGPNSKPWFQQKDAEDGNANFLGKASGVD
Source text: (§1) B-2. Stimulation of Recombinant Soluble Guanylate Cyclase (sGC) In Vitro:
Hoenicka, E. M. Becker, H. Apeler, T. Sirichoke, H. Schroeder, R. Gerzer and J.-P. Stasch, “Purified soluble guanylyl cyclase expressed in a baculovirus/Sf9 system: Stimulation by YC-1, nitric oxide, and carbon oxide”, J. Mol. Med. 77 (1999), 14-23. The heme-free guanylate cyclase is obtained by adding Tween 20 to the sample buffer (0.5% in the final concentration).
(§2) The activation of sGC by a test substance is reported as n-fold stimulation of the basal activity.

[1] = molecular target: T2, recombinant guanylate cyclase reporter cell line (Rattus norvegicus, UniProt P20595); experiment: sGC-activating activity in the CHO reporter cell in vitro; assay type: cell-based
T2 construct: expressed in transfected cells; host or cells: CHO
T2 sequence (P20595 1-619): T1 sequence (P20595 1-619)
T2 sequence (P19686 1-690 partner): T1 sequence (P19686 1-690 partner)
Procedure: B-3. Action at Recombinant Guanylate Cyclase Reporter Cell Lines
The cellular action of the compounds according to the invention is determined using a recombinant guanylate cyclase reporter cell line, as described in F. Wunder et al., Anal. Biochem. 339, 104-112 (2005).

Heme-free sGC = molecular target: T3, Heme-free sGC (Rattus norvegicus, UniProt P20595); experiment: Stimulation of recombinant soluble guanylate cyclase (sGC) in vitro, heme-free enzyme; assay type: biochemical; settings: heme-free sGC (0.5% Tween 20)
T3 construct: made in house; host or cells: baculovirus/Sf9
T3 sequence (P20595 1-619): T1 sequence (P20595 1-619)
T3 sequence (P19686 1-690 partner): T1 sequence (P19686 1-690 partner)
Procedure: as §1
Investigations on the stimulation of recombinant soluble guanylate cyclase (sGC) by the compounds according to the invention with and without sodium nitroprusside, and with and without the heme-dependent sGC inhibitor 1H-1,2,4-oxadiazole-(4,3a)-quinoxalin-1-one (ODQ) are carried out by the method described in detail in the following reference: M. Hoenicka, E. M. Becker, H. Apeler, T. Sirichoke, H. Schroeder, R. Gerzer and J.-P. Stasch, “Purified soluble guanylyl cyclase expressed in a baculovirus/Sf9 system: Stimulation by YC-1, nitric oxide, and […]”, J. Mol. Med. 77 (1999), 14-23. The heme-free guanylate cyclase is obtained by adding Tween 20 to the sample buffer (0.5% in the final concentration).
as §2

saphenous artery = experiment: Vasorelaxant effect in vitro (phenylephrine-contracted artery rings); design: species or system Rabbits; settings: Oryctolagus cuniculus; rabbit saphenous artery rings, contraction induced by phenylephrine
Procedure: B-1. Vasorelaxant Effect In Vitro:
Rabbits are anesthetized and sacrificed by intravenous injection of thiopental sodium (about 50 mg/kg) and exsanguinated. The saphenous artery is removed and divided into rings 3 mm wide. The rings are mounted singly on in each case a pair of triangular hooks open at the end and made of 0.3 mm-thick special wire (Remanium®). Each ring is placed under an initial tension in 5 ml organ baths with Krebs-Henseleit solution which is at 37° C., is gassed with carbogen and has the following composition: NaCl 119 mM; KCl 4.8 mM; CaCl2×2H2O 1 mM; MgSO4×7H2O 1.4 mM; KH2PO4 1.2 mM; NaHCO3 25 mM; glucose 10 mM; bovine serum albumin 0.001%. The force of contraction is detected with Statham UC2 cells, amplified and digitized via A/D converters (DAS-1802 HC, Keithley Instruments, Munich) and recorded in parallel on chart recorders. Contractions are induced by addition of phenylephrine.
After several (generally 4) control cycles, the substance to be investigated is added in each further run in increasing dosage, and the height of the contraction achieved under the influence of the test substance is compared with the height of the contraction reached in the last preceding run. The concentration necessary to reduce the contraction reached in the preceding control by 50% is calculated from this (IC50). The standard application volume is 5 μl. The proportion of DMSO in the bath solution corresponds to 0.1%.

O=C(O)c1ccc(CCC(/C=C/c2ccccc2OCCCN2CCCC2=O)Cc2ccc(C(=O)O)cc2)cc1 (single isomer, unassigned) [Example 3, 4-[(4E)-3-(4-Carboxybenzyl)-5-{2-[3-(2-oxopyrrolidin-1-yl)propoxy]phenyl}pent-4-en-1-yl]-benzoic acid]
Stimulation (n-fold) of sGC, +0.1 μM DEA/NO (Heme-containing sGC; 0.01 μM Example 3): 23.3 n-fold | Stimulation (n-fold) of sGC, +0.1 μM DEA/NO (Heme-containing sGC; 0.1 μM Example 3): 34.7 n-fold | Stimulation (n-fold) of sGC, +0.1 μM DEA/NO (Heme-containing sGC; 1 μM Example 3): 41.6 n-fold | Stimulation (n-fold) of sGC, +0.1 μM DEA/NO (Heme-containing sGC; 10 μM Example 3): 40.0 n-fold | Stimulation (n-fold) of sGC, +10 μM ODQ (Heme-containing sGC; 0.01 μM Example 3): 35.1 n-fold | Stimulation (n-fold) of sGC, +10 μM ODQ (Heme-containing sGC; 0.1 μM Example 3): 98.0 n-fold | Stimulation (n-fold) of sGC, +10 μM ODQ (Heme-containing sGC; 1 μM Example 3): 124 n-fold | Stimulation (n-fold) of sGC, +10 μM ODQ (Heme-containing sGC; 10 μM Example 3): 134 n-fold | Stimulation (n-fold) of sGC, Basal (Heme-containing sGC; 0.01 μM Example 3): 6.1 n-fold | Stimulation (n-fold) of sGC, Basal (Heme-containing sGC; 0.1 μM Example 3): 11.6 n-fold | Stimulation (n-fold) of sGC, Basal (Heme-containing sGC; 1 μM Example 3): 16.0 n-fold | Stimulation (n-fold) of sGC, Basal (Heme-containing sGC; 10 μM Example 3): 18.9 n-fold | Synergy with the NO donor DEA/NO on sGC (Heme-containing sGC; combination with DEA/NO): no synergistic effect | MEC (minimum effective concentration) [1]: 1 nM | Stimulation (n-fold) of heme-free sGC, Basal (Heme-free sGC; 0.01 μM Example 3): 9.9 n-fold | Stimulation (n-fold) of heme-free sGC, Basal (Heme-free sGC; 0.1 μM Example 3): 35.2 n-fold | Stimulation (n-fold) of heme-free sGC, Basal (Heme-free sGC; 1 μM Example 3): 69.7 n-fold | Stimulation (n-fold) of heme-free sGC, Basal (Heme-free sGC; 10 μM Example 3): 74.6 n-fold | IC50 (saphenous artery): 52 nM
